Converted amounts (≈) assume the structure as drawn. Read-outs that look alike come from different tables or passages of the source. Positions of bridges follow the written chain, without caps; N, C: chain ends. Non-standard residues stand in square brackets, D forms with d. Residues, ends and D or L forms follow the SMILES beside them. *: point of attachment. Isonicotinoyl(2-Ph) = O=C(c1ccnc(-c2ccccc2)c1)*; Decanoyl(3R-OH) = CCCCCCC[C@@H](O)CC(=O)*; X9 = CCCCCC1CCC(C(=O)*)CC1; dDab = NCC[C@@H](N)C(=O)O; Dab = NCC[C@H](N)C(=O)O
How the values were obtained:
[1] = in vitro; details: human
Outline: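 HK2 cells were seeded at 2000 per well in DMEM/F12 with 10% FBS and left to attach for 24 h at 37 °C, 5% CO2. They were then exposed for 24 h to 3-fold peptide dilutions starting from 600 μM solutions in quadruplicate. LDH release was read at 450 nm, and CC50 was fitted from dose-response curves.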

[2] = tested on: P. aeruginosa GN_043, PmxR
Outline: (§1)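 Mid-log cultures grown in Mueller Hinton broth at 37° C were tested by 2-fold broth microdilution at 5×10^5 CFU/mL final. Compounds were dissolved in water and tested over a final range of 32 to 0.015 μg/mL.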

[3] = tested on: K. pneumoniae GN_102 PmxR; details: GN 102 PmxR
Outline: as §1

[4] = tested on: K. pneumoniae ATCC 700603, MDR; details: ATCC 700603
Outline: as §1

[5] = tested on: K. pneumoniae GN_106, PmxR; details: GN 106, PmxR
Outline: as §1

[6] = tested on: S. aureus ATCC 25923, MSSA; details: ATCC 25923
Outline: as §1

[7] = tested on: P. aeruginosa GN_105, PmxR; details: GN 105, PmxR
Outline: as §1

[8] = tested on: E. coli ATCC 25922; details: ATCC 25922
Outline: as §1

[9] = tested on: K. pneumoniae ATCC 13883; details: ATCC 13883
Outline: as §1

[10] = tested on: P. aeruginosa ATCC 27853; details: ATCC 27853
Outline: as §1

[11] = tested on: A. baumannii ATCC 19606; details: ATCC 19606
Outline: as §1

[12] = tested on: K. pneumoniae ATCC BAA-2146, NDM-1 pos; details: ATCC BAA-2146
Outline: as §1

[13] = tested on: A. baumannii GN_093 PmxR; details: GN 093 PmxR
Outline: as §1

Question: For CCCCCC1CCC(C(=O)N[C@H](CCN)C(=O)N[C@H]2CCNC(=O)[C@H]([C@@H](C)O)NC(=O)[C@H](CCN)NC(=O)[C@H](CCN)NC(=O)[C@H](CC(C)C)NC(=O)[C@@H](Cc3ccccc3)NC(=O)[C@H](CCN)NC2=O)CC1 (stereo partly drawn) [compound 6404, C11H21CO-D-Dab-cyc[L-Dab-L-Dab-D-Phe-L-Leu-L-Dab-L-Dab-L-Thr]] (X9-[dDab][Dab][Dab][dF]L[Dab][Dab]T; lactam 2-C), which CC50 at 24 h [1] is on record?
Answer: 38 µM

Question: And the “MIC P. aeruginosa GN_043, PmxR” value ([2]; P. aeruginosa GN_043, PmxR)?
Answer: 32 µg/mL (≈ 30.7 µM)

Question: And the “MIC K. pneumoniae GN_102 PmxR” value [3]?
Answer: >32 µg/mL

Question: What about the “MIC K. pneumoniae ATCC 700603, MDR” value [4] of the same molecule?
Answer: 0.5 µg/mL (≈ 0.48 µM)

Question: What about the “MIC K. pneumoniae GN_106, PmxR” value [5] of the same molecule?
Answer: >32 µg/mL

Question: What about the “MIC S. aureus ATCC 25923, MSSA” value [6] of the same molecule?
Answer: 8 µg/mL (≈ 7.68 µM)

Question: And the “MIC P. aeruginosa GN_105, PmxR” value [7]?
Answer: 8 µg/mL (≈ 7.68 µM)

Question: What about the “MIC E. coli ATCC 25922” value [8] of the same molecule?
Answer: 1 µg/mL (≈ 0.959 µM)

Question: What about the “MIC K. pneumoniae ATCC 13883” value [9] of the same molecule?
Answer: 16 µg/mL (≈ 15.4 µM)

Question: And the “MIC P. aeruginosa ATCC 27853” value [10]?
Answer: 0.25 µg/mL (≈ 0.24 µM)

Question: What about the “MIC A. baumannii ATCC 19606” value [11] of the same molecule?
Answer: 64 µg/mL (≈ 61.4 µM)

Question: What about the “MIC K. pneumoniae ATCC BAA-2146, NDM-1 pos” value [12] of the same molecule?
Answer: 1 µg/mL (≈ 0.959 µM)

Question: What about the “MIC A. baumannii GN_093 PmxR” value [13] of the same molecule?
Answer: >32 µg/mL

Question: Which CC50 at 24 h [1] does the source give for CC(C)C[C@@H]1NC(=O)[C@@H](Cc2ccccc2)NC(=O)[C@H](CCN)NC(=O)[C@@H](NC(=O)[C@@H](CCN)NC(=O)c2ccnc(-c3ccccc3)c2)CCNC(=O)[C@H]([C@@H](C)O)NC(=O)[C@H](CCN)NC(=O)[C@H](CCN)NC1=O [compound 6405, 3Phe4-PyCO-D-Dab-cyc[L-Dab-L-Dab-D-Phe-L-Leu-L-Dab-L-Dab-L-Thr]] ({Isonicotinoyl(2-Ph)}-[dDab][Dab][Dab][dF]L[Dab][Dab]T; lactam 2-C) here?
Answer: > 300 µM

Question: And the “MIC P. aeruginosa GN_043, PmxR” value ([2]; P. aeruginosa GN_043, PmxR)?
Answer: >32 µg/mL

Question: And the “MIC K. pneumoniae GN_102 PmxR” value [3]?
Answer: >32 µg/mL

Question: What about the “MIC K. pneumoniae ATCC 700603, MDR” value [4] of the same molecule?
Answer: >64 µg/mL

Question: And the “MIC K. pneumoniae GN_106, PmxR” value [5]?
Answer: >32 µg/mL

Question: What about the “MIC S. aureus ATCC 25923, MSSA” value [6] of the same molecule?
Answer: >32 µg/mL

Question: And the “MIC P. aeruginosa GN_105, PmxR” value [7]?
Answer: >32 µg/mL

Question: And the “MIC E. coli ATCC 25922” value [8]?
Answer: >64 µg/mL

Question: And the “MIC K. pneumoniae ATCC 13883” value [9]?
Answer: >64 µg/mL

Question: And the “MIC P. aeruginosa ATCC 27853” value [10]?
Answer: 8 µg/mL (≈ 7.67 µM)

Question: And the “MIC A. baumannii ATCC 19606” value [11]?
Answer: >64 µg/mL

Question: And the “MIC K. pneumoniae ATCC BAA-2146, NDM-1 pos” value [12]?
Answer: >64 µg/mL

Question: What about the “MIC A. baumannii GN_093 PmxR” value [13] of the same molecule?
Answer: >32 µg/mL

Question: Which CC50 at 24 h [1] does the source give for CCCCCCC[C@@H](O)CC(=O)N[C@H](CCN)C(=O)N[C@H]1CCNC(=O)[C@H](CCCNC(=N)N)NC(=O)[C@H](CCN)NC(=O)[C@H](CCN)NC(=O)[C@H](CC(C)C)NC(=O)[C@@H](Cc2ccccc2)NC(=O)[C@H](CCN)NC1=O [compound 6508, 3(R)OH-nC9CO-D-Dab-cyc[L-Dab-L-Dab-D-Phe-L-Leu-L-Dab-L-Dab-L-Arg]] ({Decanoyl(3R-OH)}-[dDab][Dab][Dab][dF]L[Dab][Dab]R; lactam 2-C) here?
Answer: 142 µM

Question: And the “MIC P. aeruginosa GN_043, PmxR” value ([2]; polymyxin-resistant)?
Answer: >32 µg/mL

Question: What about the “MIC K. pneumoniae GN_102 PmxR” value [3] of the same molecule?
Answer: >32 µg/mL

Question: What about the “MIC K. pneumoniae ATCC 700603, MDR” value [4] of the same molecule?
Answer: 16 µg/mL (≈ 14.7 µM)

Question: And the “MIC K. pneumoniae GN_106, PmxR” value [5]?
Answer: >32 µg/mL

Question: And the “MIC S. aureus ATCC 25923, MSSA” value [6]?
Answer: >32 µg/mL

Question: What about the “MIC P. aeruginosa GN_105, PmxR” value [7] of the same molecule?
Answer: 32 µg/mL (≈ 29.4 µM)

Question: And the “MIC E. coli ATCC 25922” value [8]?
Answer: 16 µg/mL (≈ 14.7 µM)

Question: What about the “MIC K. pneumoniae ATCC 13883” value [9] of the same molecule?
Answer: >64 µg/mL

Question: What about the “MIC P. aeruginosa ATCC 27853” value [10] of the same molecule?
Answer: 2 µg/mL (≈ 1.84 µM)

Question: And the “MIC A. baumannii ATCC 19606” value [11]?
Answer: >64 µg/mL

Question: And the “MIC K. pneumoniae ATCC BAA-2146, NDM-1 pos” value [12]?
Answer: >64 µg/mL

Question: And the “MIC A. baumannii GN_093 PmxR” value [13]?
Answer: >32 µg/mL

Question: With CCCCCCC[C@@H](O)CC(=O)N[C@H](CCN)C(=O)N[C@H]1CCNC(=O)[C@H](CO)NC(=O)[C@H](CCN)NC(=O)[C@H](CCN)NC(=O)[C@H](CC(C)C)NC(=O)[C@@H](Cc2ccccc2)NC(=O)[C@H](CCN)NC1=O [compound 6510, 3(R)OH-nC9CO-D-Dab-cyc[L-Dab-L-Dab-D-Phe-L-Leu-L-Dab-L-Dab-L-Ser]] ({Decanoyl(3R-OH)}-[dDab][Dab][Dab][dF]L[Dab][Dab]S; lactam 2-C) as the molecule, how does the CC50 at 24 h [1] read?
Answer: 149 µM

Question: And the “MIC P. aeruginosa GN_043, PmxR” value ([2]; polymyxin-resistant)?
Answer: 1 µg/mL (≈ 0.982 µM)

Question: And the “MIC K. pneumoniae GN_102 PmxR” value [3]?
Answer: >32 µg/mL

Question: What about the “MIC K. pneumoniae ATCC 700603, MDR” value [4] of the same molecule?
Answer: 4 µg/mL (≈ 3.93 µM)

Question: What about the “MIC K. pneumoniae GN_106, PmxR” value [5] of the same molecule?
Answer: >32 µg/mL

Question: And the “MIC S. aureus ATCC 25923, MSSA” value [6]?
Answer: >64 µg/mL

Question: What about the “MIC P. aeruginosa GN_105, PmxR” value [7] of the same molecule?
Answer: 16 µg/mL (≈ 15.7 µM)

Question: And the “MIC E. coli ATCC 25922” value [8]?
Answer: 1 µg/mL (≈ 0.982 µM)

Question: What about the “MIC K. pneumoniae ATCC 13883” value [9] of the same molecule?
Answer: 64 µg/mL (≈ 62.9 µM)

Question: And the “MIC P. aeruginosa ATCC 27853” value [10]?
Answer: 1 µg/mL (≈ 0.982 µM)

Question: What about the “MIC A. baumannii ATCC 19606” value [11] of the same molecule?
Answer: >64 µg/mL

Question: And the “MIC K. pneumoniae ATCC BAA-2146, NDM-1 pos” value [12]?
Answer: 4 µg/mL (≈ 3.93 µM)

Question: What about the “MIC A. baumannii GN_093 PmxR” value [13] of the same molecule?
Answer: >32 µg/mL

From patent US11279733B2, “Peptide antibiotics” (priority 2017, dated 2022)
